The source of these data is patent US5202314A, “10-thioethyl-steroids” (Roussel Uclaf, priority 1991, dated 1993).

pIC50: −log10 of the molar value.

This experiment addresses T1, aromatase (Homo sapiens, UniProt P11511).
T1 construct: The supernatant was then subjected to an ultracentrifugation stage (90 minutes, 105,000 g) to obtain the microsomal regulus; from tissue; host or cells: human placenta, microsomal fraction
T1 sequence (P11511 1-503): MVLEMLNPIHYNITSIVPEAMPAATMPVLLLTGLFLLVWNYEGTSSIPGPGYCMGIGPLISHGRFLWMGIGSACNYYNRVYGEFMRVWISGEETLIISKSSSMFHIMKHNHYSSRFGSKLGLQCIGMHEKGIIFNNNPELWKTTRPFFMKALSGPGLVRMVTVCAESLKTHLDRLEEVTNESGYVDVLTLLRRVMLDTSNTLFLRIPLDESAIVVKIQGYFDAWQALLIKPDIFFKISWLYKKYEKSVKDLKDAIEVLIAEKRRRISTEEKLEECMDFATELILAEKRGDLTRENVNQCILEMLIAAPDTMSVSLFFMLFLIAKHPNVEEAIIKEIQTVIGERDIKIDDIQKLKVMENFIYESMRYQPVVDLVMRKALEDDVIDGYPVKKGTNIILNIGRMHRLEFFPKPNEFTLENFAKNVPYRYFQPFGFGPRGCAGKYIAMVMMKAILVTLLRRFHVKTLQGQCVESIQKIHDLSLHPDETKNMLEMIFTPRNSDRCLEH
In words: Inhibition of aromatase in human placental microsomes (tritiated water release from 1β-2β-3H-Androstenedione). Format: biochemical. Particulars: 25 micrograms of proteins per test, substrate Androstenedione 500 nM, NADPH, 37° C., 10 minutes, read-out: IC50 (concentration of inhibitor necessary to decrease by 50% the enzymatic activity). The method, then:
Inhibition dependent on the concentration (measurement of IC50 =concentration of inhibitor necessary to reduce the enzymatic activity by 50%). Human placentas were used which were washed one hour at most after birth, perfused with physiological serum (5 liters) via the umbilical vein and then deep-frozen at -40° C.
(1) Obtaining the placental microsomes
The placentas were thawed at 4° C. and then homogenized (1:3) in a phosphate buffer 10 mM, pH=7.0; containing 100 millimoles of potassium chloride (KCl), 10 millimoles of dithiothreitol (DTT), 10 millimoles of ethylenediaminetetraacetic acid (EDTA), 40 millimoles of nicotinamide and 250 millimoles of sucrose. […]
The supernatant was then subjected to an ultracentrifugation stage (90 minutes, 105,000 g) to obtain the microsomal regulus. […] The protein concentration of the microsomal suspension was determined by the BRADFORD method BRADFORD M., Anal. Biochem., Vol. 72, (1976), p. […]
After centrifugation, 100 microliters of supernatant were taken from each tube and counted in the presence of a scintillating liquid. […] The inhibition obtained for each concentration of each inhibitor product of the invention was calculated as a percentage of the controls (arbitrary 100% , obtained in absence of any inhibitor). […]

With `CSCC[C@]12CCC(=O)C=C1[C@H](O)C[C@H]1[C@@H]3CCC(=O)[C@@]3(C)C[C@H]3O[C@]312` [Example 2, 9α, 11α-epoxy-10β-[2-methylthio-ethyl]-Δ^4-estrene-6β-ol-3,17-dione], the pIC50 was 6.74.
